According to US8034839B2, “Method of treating ocular allergy” (Alcon Research, Ltd., priority 2005, dated 2011):
Marks after values point to notes of the source that are not given here.

What was measured:
neutrophils = details: disclosed by Lee et al., Biochem. Biophys. Res. Commun. 1991; cited from earlier work
[1] = test system: conjunctival EPO activity; assay: Mouse late-phase allergy model (OVA-induced allergic conjunctivitis), conjunctival EPO activity assay; format: in vivo, mouse (female BALB/c); details: for EPO Activity (ng/ml/mg tissue) ± S.D.: single 5 μl topical drop O.D. BID, conjunctival EPO activity at 24 hrs post-challenge, mean ± S.D.
Description: Active Sensitization and Induction of Allergic Conjunctivitis (AC)
Female BALB/c mice, 6 to 9 months old (Charles River Labs), were given a single intraperitoneal injection of 100 μg chicken ovalbumin (OVA; Sigma) which had been absorbed to 5 mg of alum (Pierce Chemical) as an adjuvant or 5 mg alum only (unsensitized group). On day 14 after sensitization, all mice were challenged with a single topical drop O.D. of 1 mg OVA dissolved in 5 μl PBS.
Drugs or vehicles were administered to mice as a single 5 μl drop O.D. at 60 min before challenge and again at 16 hrs after challenge (BID dosing). Mice were euthanized at 24 hrs after challenge.
Mice were euthanized at 24 hrs after topical challenge and upper and lower eyelids containing palpebral conjunctiva were excised and immediately frozen on dry ice. Samples were weighed frozen and then thawed and homogenized on ice in 2 ml of 50 mM HEPES buffer, pH 6.5. Samples were pelleted at 4000 rpm for 20 min at 4° C. and supernatants were discarded. To each pellet, 1 ml of 0.5% cetyltrimethylammonium chloride (CTAC) was added and samples were vortexed vigorously. Samples were then subjected to three freeze-thaw cycles between −80° C. and 37° C. After final thaw, samples were sonicated on ice for 15-30 sec and pelleted at 4000 rpm for 20 min at 4° C. EPO activity assay was performed on supernatants.
For the EPO activity assay, 75 μl of each sample were added in triplicate to wells of a 96-well clear flat-bottomed microplate. 75 μl of EPO substrate solution [6 mM o-phenylenediamine (OPD), 8.8 mM H2O2, and 6 mM KBr in 50 mM HEPES, pH 6.5] were then added to each well using a multichannel pipetter. The reaction was allowed to run for 3 min and was stopped by addition of 150 μl of 4M H2SO4. Optical density at 490 nm (OD490) was read on a Bio-Tek Synergy. HT plate reader. […] 75 μl triplicates of each standard were used on each run of the assay. Linear regression was determined for the resulting plot of [EPO] vs OD490. Final [EPO] in each sample was determined by solving for x in the equation y=m*x+b, where y=OD490, m=[…].
Groups of means were compared using Student's unpaired t-test or Dunnett's t-test where appropriate. […] Data are expressed as mean±standard deviation.

SMILES | inhibition of LTB4-induced chemotaxis of neutrophils (neutrophils) | inhibition of conjunctival EPO activity (in words) ([1]; all three doses (0.001%, 0.01%, and 0.1% solutions), 24 hrs post-challenge, efficacy comparable to 0.1% dexamethasone) | EPO Activity (ng/ml/mg tissue) ± S.D. ([1]; dose 0.001%) | EPO Activity (ng/ml/mg tissue) ± S.D. ([1]; dose 0.01%) | EPO Activity (ng/ml/mg tissue) ± S.D. ([1]; dose 0.1%)
CCCCC[C@H](O)[C@H](O)CO [compound 2] | as potently as lipoxin A4 |  |  |  | 
CCCCC[C@H](O)/C=C/C=C\C=C\C=C\[C@@H](O)[C@@H](O)CCCC(=O)O [lipoxin A4, Lipoxin A4, reference compound] | inhibit |  |  |  | 
COC(=O)CCC[C@H](O)[C@H](O)CO [compound 1] | as potently as lipoxin A4 | significantly inhibited | 5.2 ± 2.5^c,d ng/ml/mg tissue | 4.8 ± 1.2^c,d ng/ml/mg tissue | 3.2 ± 1.0^c,d ng/ml/mg tissue
C[C@@H]1C[C@H]2[C@@H]3CCC4=CC(=O)C=C[C@]4(C)[C@@]3(F)[C@@H](O)C[C@]2(C)[C@@]1(O)C(=O)CO [dexamethasone, reference compound] |  |  |  |  | 4.0 ± 0.5^c ng/ml/mg tissue
